Measured values as given in PubChem BioAssay AID504313 (Emory University Molecular Libraries Screening Center, 2011).
Calls of active or inactive are those of the source. How the calls were made is not given here.

biological target: X-box-binding protein 1 (Homo sapiens) (UniProt P17861); experiment: inhibitors of XBP1 reporter signal, dose response, counter-screen, cell-based (AID 504313); conditions: XBP1 reporter cell assay, percent of control;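 further: CHO cells carrying an XBP1 reporter stimulated with tunicamycin; potency is for inhibition of the tunicamycin-induced reporter signal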

Row | Structure (SMILES) | IC50
1 | COc1ccc(/C=C2/SC(=S)N(CCCC(=O)Nc3ccc(O)cc3)C2=O)cc1 | 0.18 µM
2 | CCOC(=O)C1=C(C)NC(C)=C(C(=O)OCC)C1/C=C/c1ccccc1 | inactive
3 | CC(C)(C)c1ccc(C(=O)Nc2ccc(CC(=O)O)cc2)o1 | < 0.16 µM
4 | Cc1ccc2nc(-c3cc(-c4ccccc4)no3)cn2c1 | > 10 µM (inactive)
5 | CCOc1cc(S(=O)(=O)Nc2ccccc2CC)ccc1Cl | > 10 µM (inactive)
6 | O=S(=O)(/C(=C/c1ccc(C(F)(F)F)cc1)c1nc2ccccc2[nH]1)c1ccccc1 | 2.22 µM
7 | Cc1nc2c(=O)n(C)c(=O)n(C)c2nc1Cl | inactive
8 | CCOc1cc(S(=O)(=O)Nc2ccc(CC)cc2)ccc1Cl | inactive
9 | NS(=O)(=O)c1ccc(N/N=C2/CCCCC2C2CCCCC2)c([N+](=O)[O-])c1 (stereo not drawn) | 4.48 µM
10 | CCN(CCO)c1ncnc2c1sc1nc(C(C)C)c3c(c12)CC(C)(C)OC3 | > 10 µM (inactive)
11 | O=C(Nc1ccc(S(=O)(=O)N2CCOCC2)cc1)c1ccc(CN2CCc3ccccc3C2)cc1 | inactive
12 | CCCNC(=O)c1nnsc1S(=O)(=O)c1ccc(Cl)cc1 | 0.87 µM
13 | CCOC(=O)CN1C(c2ccc(O)cc2)Nc2ccc(Br)cc2C1c1ccccc1 (stereo not drawn) | > 10 µM (inactive)
14 | CCCCCCOC(=O)Nc1ccc(S(=O)(=O)Nc2cccc([N+](=O)[O-])c2)cc1 | > 10 µM (inactive)
15 | CCOC(=O)/C(=C\c1ccc(OC(F)F)cc1)C1=Nn2c(nnc2-c2ccc(Cl)cc2)SC1 | 4.7 µM
16 | COc1cc(N(C(=O)Cc2cccs2)C(C(=O)NC2CCCCC2)c2ccc(C)cc2)ccc1-n1cnnn1 (stereo not drawn) | > 10 µM (inactive)
17 | C=CCn1c(SCC(=O)Nc2ccc(-c3nc4ccc(C)cc4s3)cc2)nnc1-c1ccccc1 | > 10 µM (inactive)
18 | Cc1cc(/C=N/n2cnnc2)c(C)n1-c1ccc(OCc2ccccc2F)cc1 | 4.85 µM
19 | O=C(N/N=C/c1ccc(F)cc1)c1c(O)c2ccccc2[nH]c1=O | > 10 µM (inactive)
20 | CS(=O)(=O)c1nc(-c2ccccc2)cc(C(F)(F)F)n1 | inactive
21 | CCc1ccc(OCCNC(=O)c2ccccc2SCc2ccccc2)cc1 | > 10 µM (inactive)
22 | O=C(Nc1cccc(-c2nc3ncccc3o2)c1)c1sc2ccccc2c1Cl | > 10 µM (inactive)
23 | CCOc1ccc(C(=O)C(CCC(CN(C)C)C(=O)c2ccc(OCC)cc2)CN(C)C)cc1 (stereo not drawn) | inactive
24 | O=C1C=CC(O)(c2cc(=O)c3c(O)cc(O)cc3o2)C=C1 | 3.84 µM
25 | O=C(Nc1ccccc1)Nc1cc(OCC(F)(F)F)cc(OCC(F)(F)F)c1 | 3.95 µM

Row | Structure (SMILES) | IC50
26 | N#Cc1nccnc1S(=O)(=O)c1cccs1 | inactive
27 | COc1cc([C@@H]2c3cc4c(cc3[C@@H](O)[C@@H](CO)[C@@H]2CO)OCO4)cc(OC)c1O[Si](C)(C)C(C)(C)C | inactive
28 | CC(C)(C)C1C/C(=C/c2ccccn2)C(=O)/C(=C/c2ccccn2)C1 (stereo not drawn) | 0.55 µM
29 | CC(C)(C)c1nnc(N/N=C/c2cc(Br)ccc2O)n(N)c1=O | 6.02 µM
30 | O=C(Nc1ccccc1-c1nc2ccccc2[nH]1)c1sc2ccccc2c1Cl | > 10 µM (inactive)
31 | N#CC(C#N)=C1C=CC=CN1/C(=C\c1ccccc1Cl)C(=O)c1ccccc1 | inactive
32 | CCc1ccc(/C=C2\SC(=S)N(CCCC(=O)Nc3ccccn3)C2=O)cc1 | < 0.16 µM
33 | CCc1ccc2[nH]c(=O)c(C(c3nnnn3Cc3ccco3)N3CCC(C)CC3)cc2c1 (stereo not drawn) | > 10 µM (inactive)
34 | O=C1CC(c2ccco2)CC(O)=C1C=Nc1ccccc1-c1ccccc1 (stereo not drawn) | inactive
35 | Cc1ccc(N=C2SC(C(=O)Nc3ccc(OC(F)(F)F)cc3)C(N)=C2C(=O)Nc2c(C)cc(C)cc2C)cc1 (stereo not drawn) | > 10 µM (inactive)
36 | COc1ccc(NS(=O)(=O)c2ccc(O)c(NC(=O)c3cc4c(C)nn(-c5ccc(F)cc5)c4s3)c2)cc1 | > 10 µM (inactive)
37 | COC(=O)[C@@H]1[C@@H](C(=O)OC)C2(c3ccccc3-c3ccccc32)N(c2ccc(Cl)cc2)N1C#N | > 10 µM (inactive)
38 | O=C1C(=C2SCCCS2)CC/C1=C\c1ccc(F)cc1 | 3.13 µM
39 | Nc1c(S(=O)(=O)c2cccc(Cl)c2)c2nc3ccccc3nc2n1/N=C/c1ccc(O)c(O)c1 | > 10 µM (inactive)
40 | COC(=O)[C@]12OC[C@]34C([C@@H](O)[C@@H]1O)[C@]1(C)CC(=O)C(O)=C(C)[C@@H]1C[C@H]3OC(=O)[C@H](O)[C@@H]24 (stereo partly drawn) | inactive
41 | O=C1c2ccccc2C(=O)C1c1nccc2ccccc12 | inactive
42 | CC(C)=CCCC1(C)C=Cc2c(c(C)cc3c2[nH]c2cc(O)ccc23)O1 (stereo not drawn) | inactive
43 | CC(C)C[C@H](NC(=O)c1nc[nH]c1C(=O)NCC(=O)OC(C)(C)C)C(=O)OCc1ccccc1 | inactive
44 | Cc1cccc(N=Nc2c(N)n[nH]c2-c2ccc(Cl)cc2)c1 | > 10 µM (inactive)
45 | COc1ccc(CNc2oc(-c3cccc4ccccc34)nc2C#N)cc1 | > 10 µM (inactive)
46 | O=C(/C=C\c1cn(-c2ccccc2)nc1-c1ccccc1)Nc1nccs1 | inactive
47 | CN1CCN(c2ccc(-c3ccc4ccccc4n3)cc2)CC1 | < 0.16 µM (inactive)
48 | CC(C)(C)c1cc(-c2csc(Nc3ccccc3)[n+]2Cc2ccc(C(=O)O)cc2)cc(C(C)(C)C)c1O | inactive
49 | O=C(CN1CCN(c2ncc(C(F)(F)F)cc2Cl)CC1)NCCNc1ncc(C(F)(F)F)cc1Cl | inactive
50 | O=C(C1=C(c2ccccc2)C(=O)c2ccccc2C1=O)c1ccccc1 | inactive

Row | Structure (SMILES) | IC50
51 | Oc1ccc(/C=N/Nc2nc(N3CCCCCC3)nc(N3CCCCCC3)n2)c(O)c1 | > 10 µM (inactive)
52 | Nc1nc(-c2ccccc2)c(N=Nc2ccccc2Cl)s1 | inactive
53 | C=CCc1cc(C)ccc1OCC(O)CN1CCN(c2ccccc2)CC1 (stereo not drawn) | inactive
54 | O=C(OCn1ncc(Cl)c(Cl)c1=O)c1cccc(C(F)(F)F)c1 | inactive
55 | CC1(c2ccccc2)CC(C)(C)N2C(=O)/C(=C3\SC(=S)NC3=O)c3cccc1c32 (stereo not drawn) | inactive
56 | Cc1ccc2sc(N(CCCN(C)C)C(=O)c3nc4ccccc4s3)nc2c1C | inactive
57 | COc1cc(/C=C2\COC/C(=C\c3cc(OC)c(OC)c(OC)c3)C2=O)cc(OC)c1OC | 1.39 µM
58 | Cc1ccccc1CS(=O)(=O)c1nnc([C@H](CC(C)C)NC(=O)OC(C)(C)C)o1 | inactive
59 | O=c1c(Cl)nc2cc(Cl)ccc2n1CCNc1ncc(C(F)(F)F)cc1Cl | 4.7 µM
60 | CCOc1ccc(-n2c(SCC(=O)Nc3ccc(Br)cc3)nc3n[nH]c(C)c3c2=N)cc1 | > 10 µM (inactive)
61 | CC(=O)C1=C(c2ccc(Br)cc2)C(=O)c2ccccc2C1=O | 0.99 µM
62 | COc1ccc(Cc2nc3ccccc3n2CC(=O)N/N=C/c2ccc(C)cc2O)cc1OC | > 10 µM (inactive)
63 | Nc1c(C(=O)Nc2ccc(S(=O)(=O)N3CCCC3)cc2)sc2nc3ccc(OC(F)(F)F)cc3cc12 | inactive
64 | Cc1ccc(C(=O)Nc2cnc3ccccc3c2)cc1 | 4.09 µM
65 | Cc1cc(C(C)(C)C)oc1C(=O)N1CCN(C(=O)c2oc(C(C)(C)C)cc2C)CC1 | > 10 µM (inactive)
66 | CCC(C)[C@@H](NC(=O)OC(C)(C)C)c1nnc(S(=O)(=O)Cc2cccc(C)c2)o1 (stereo partly drawn) | 4.55 µM
67 | CCc1ccc(NP(=O)(Oc2ccccc2F)Oc2ccccc2F)cc1 | > 10 µM (inactive)
68 | CCN=C1NN=C(c2cc(C)n(Cc3ccco3)c2C)CS1 | < 0.16 µM
69 | O=C(OCn1ncc(Cl)c(Cl)c1=O)c1ccc(F)cc1 | 3.7 µM
70 | Cc1nn(Cc2c(Cl)cccc2Cl)c(C)c1NC(=O)c1cc(C(C)C)on1 | > 10 µM (inactive)
71 | O=C(N/N=C/c1cccc(F)c1)c1c(O)c2ccccc2[nH]c1=O | inactive
72 | Cc1ccc(-c2[nH]ncc2/C=N/n2c(COc3ccccc3)nc3ccccc3c2=O)cc1 | inactive
73 | COc1oc(-c2ccc(Cl)cc2)nc1C(F)(F)F | inactive
74 | O=C(/C=C/c1cccc([N+](=O)[O-])c1)n1cnc2ccccc21 | inactive
75 | CCOC(=O)c1sc(N=Nc2c(O)[nH]c(=O)[nH]c2=O)c(C(=O)OCC)c1C | > 10 µM (inactive)

Row | Structure (SMILES) | IC50
76 | COc1ccc(/C=C2\SC(=S)N(CCCC(=O)Nc3ccc(O)cc3)C2=O)cc1 | < 0.16 µM
77 | C=CCSc1nc2ccccc2n1C(=O)/C=C/c1cc(OC)c(OC)c(OC)c1 | 1.73 µM
78 | COc1ccc(N2C(=O)CC(Sc3nnnn3-c3ccc(F)cc3)C2=O)cc1 (stereo not drawn) | > 10 µM (inactive)
79 | O=C(Nc1cccc(F)c1)N(Cc1ccc(Cl)cc1)CC(O)C(F)(F)F (stereo not drawn) | inactive
80 | Fc1cccc(-c2nnn3c2nc(Cl)c2ccccc23)c1 | inactive
81 | CC(C)(C)c1ccc(C2CC2C(=O)N/N=C\c2ccc[nH]2)cc1 (stereo not drawn) | inactive
82 | CCOC(=O)c1c(C(C)(C)C)oc2ccc(O)cc12 | > 10 µM (inactive)
83 | O=C(O)c1cccc(COc2ccc(CO)cc2Cl)c1 | < 0.16 µM
84 | CC(C)Cn1c(=O)[nH]c(=O)c2c(C(F)(F)F)cc(-c3ccccc3)nc21 | > 10 µM (inactive)
85 | Cc1ccccc1N1CCN(C(=O)c2ccc(Oc3ccc(C(F)(F)F)cn3)cc2)CC1 | 2.48 µM
86 | CC(/C=C1\SC(=O)N(CCCC(=O)O)C1=O)=C\c1ccccc1 | < 0.16 µM
87 | COc1ccc(/C=N\NC(=O)COc2ccc(C(C)(C)C)cc2)cc1Cn1nc(C)cc1C | inactive
88 | Cc1ccc(CNCC(O)(c2ccccc2)c2ccc(Cl)cc2)cc1 (stereo not drawn) | inactive
89 | C=C1C(=O)O[C@H]2C[C@@H](C)[C@@H]3C=CC(=O)[C@@]3(C)C[C@H]12 | inactive
90 | CCCc1cc(=O)[nH]c(Nc2ccc(N3CCCCC3)cc2)n1 | > 10 µM (inactive)
91 | Cc1cc(C(=O)N/N=C/c2ccc(-c3cccc(Cl)c3Cl)o2)n[nH]1 | > 10 µM (inactive)
92 | CCOC(=O)c1cc(-c2ccccc2)nc2c1c(C)nn2-c1ccccn1 | > 10 µM (inactive)
93 | FC(F)(F)c1cccc(NC(=S)N2CCN(c3cccc(C(F)(F)F)c3)CC2)c1 | 4.52 µM
94 | Fc1ccc(-n2nnnc2-c2cnc(-c3cccs3)nc2C(F)(F)F)cc1 | inactive
95 | CCCCn1c(/N=C/c2c[nH]c3ccccc23)nc2ccccc21 | > 10 µM (inactive)
96 | N#C/C(=C\c1ccc([N+](=O)[O-])o1)c1nc2ccccc2[nH]1 | 4.83 µM
97 | OC(c1cccc(OCc2ccccc2)c1)c1nnc(-c2ccccc2)o1 (stereo not drawn) | > 10 µM (inactive)
98 | CC(C)(C)c1ccc(OCCNC(=S)Nc2ccccc2)cc1 | inactive
